Structures are written as SMILES. “Also recorded” adds a separate entry of the source. Read-outs that look alike come from different tables or passages of the source. Where a SMILES comes first, the peptide text is derived from it. Bridges are numbered along the chain shown (N, C = ends). Triazole bridges read from a SMILES are 1,4-linked. [ ]: non-standard residue; d: D form. The star is where a group is joined. Benzoyl(4-guanidino) = N=C(N)Nc1ccc(C(=O)*)cc1; Aha = [N-]=[N+]=NCC[C@H](N)C(=O)O; β3hV = CC(C)[C@H](N)CC(=O)O; Nle = CCCC[C@H](N)C(=O)O; Pra = C#CC[C@H](N)C(=O)O

A word on the half-life: it is the time in which the quantity being followed falls by half. Read a low half-life as fast loss.

The test system of data set [1] is high-fat diet-induced obese C57BL/6 mice. The data set is described as follows: Diet-induced obesity model: adipose tissue weights. It is filed as in vivo, mouse. Here is the method:
Male C57BL/6 mice at 4 weeks of age were provided by BioLasco Taiwan (under Charles River Laboratories Licensee). All animals were maintained in an environment with well-controlled temperature (20–24 °C) and humidity (30–70%) with 12 h light/dark cycles. Free access to standard lab diet (MFG (Oriental Yeast Co., Ltd., Japan)) and autoclaved tap water was granted. All aspects of this work including housing, experimentation, and animal disposal were performed in general accordance with the “Guide for the Care and Use of Laboratory Animals: Eighth Edition” (National Academies Press, Washington, D.C., 2011) in our laboratory animal facility accredited by the […]. In addition, the protocol for animal care and use was reviewed and approved by the Institutional Animal Care and Use Committee (IACUC) at Pharmacology Discovery Services Taiwan, Ltd.
The protocol was performed for all groups and all animals. Male C57BL/6 mice were fed a high-fat diet (HFD) (60% of calories) or a standard chow diet (STD) from 4 weeks of age. Thirty (30) mice were fed the HFD and 10 mice were fed the STD (for 8 weeks before treatment) for a total of 20 weeks. The mice assigned to the STD diet were maintained on this diet throughout the study as a reference group of lean control mice. From Week 9, HFD-fed mice were grouped by body weight before dosing. Body weight was recorded three times weekly from Week 9. Food/water intake was recorded twice weekly from Week 9. Blood chemistry analyzes were performed in Weeks 8 (before dosing, Day 56), 16 (Day 113) and 20 (Day 141), including serum insulin, total cholesterol (T-CHO), triglyceride (TG), alanine aminotransferase (ALT), aspartate aminotransferase (AST), uric acid (UA), creatinine, potassium (K^+) and sodium (Na^+). At the termination in Week 20 (Day 141), the adipose tissue weight, including epididymal, mesenteric, inguinal, retroperitoneal, and brown fat, was measured after the animals were sacrificed. Two-way ANOVA followed by Bonferroni’s tests were applied to ascertain the difference between vehicle control and treated animals. Significance was set at p < 0.05 level. The following parameters were measured: (1) body weight three times weekly; (2) food/water intake twice weekly; (3) blood chemistry in Weeks 8 (before dosing), 16 and 20 including glucose, insulin, serum lipids (triglycerides (TG), total cholesterol (TC), AST, alanine aminotransferase (ALT), uric acid, creatinine, potassium and sodium through 16-h fasting animals; and finally, (4) total body fat (including visceral and subcutaneous fat) in Week 20.

Data set [2] is classed as in vitro ADME. To be noted: for half-life: plasma. Here is the method: Plasmas from 3 species (including commercially available human healthy donors) were adjusted to pH 7.4 if necessary. Incubations were performed at a concentration of 1 µM of the compound at 37 °C (in the presence of a final concentration of DMSO of 2.5% v/v. The incubations were stopped at 0, 15, 30, 60 and 120 min by methanol. Each time point was run in sextuplets. The sampling plates were then centrifuged (2500 rpm, 45 min, 4 °C) and the supernatants pooled. Samples were analyzed for parent compound by LC-MS/MS. The percentage of parent compound remaining at each time point relative to the 0 min sample is then calculated from LC-MS/MS peak area ratios. Then, the stability in plasma was evaluated by incubating human, rat or mouse plasma with the compound(s) as follows: the product (0.1 µM in TRIS buffer pH 7.4 0.1% BSA) was incubated with the plasma at 37 °C. The disappearance of the product was measured at 15, 45, 120, 240 and 300 min by mass spectrometry. Incubations were carried out in a robot Star (Hamilton France, Villebon-sur-Yvette, France). At each sampling time, 50 µL of the reaction medium was removed and diluted with 100 µL of acetonitrile. After centrifugation (20 min at + 4 °C, 4000 rpm), 75 µL of the supernatants was transferred into a 384 well injection plate. Ten microliters were injected onto UPLC coupled with a XEVO TQS mass spectrometer system (Waters, Milford, MA, USA). The unchanged product is quantified using a reference sample (0.1 µM) prepared during the incubation process. A second reference sample at 0.01 µM is prepared in the same conditions to verify the linearity of the detection method. The peak height (or area) is measured to calculate the half-life of the compound.

The mark [3] stands for this setting: 5 and 10 mg/kg i.p. once daily for 12 weeks, Week 20 (Day 141).

On to `CCCC[C@@H]1NC(=O)[C@@H](NC(=O)c2ccc(NC(=N)N)cc2)CCn2cc(nn2)C[C@@H](C(=O)N[C@@H](Cc2c[nH]c3ccccc23)C(=O)O)NC(=O)[C@@H]2CCCN2C(=O)[C@H](CCCNC(=N)N)NC(=O)C[C@H](C(C)C)NC(=O)[C@H](CCCNC(=N)N)NC(=O)[C@H](CC(C)C)NC1=O` [GPS18169] ({Benzoyl(4-guanidino)}-[Aha][Nle]LR[β3hV]RP[Pra]W-OH; triazole 1-8), for which the “adipose tissue weight / accumulation” value in data set [1] (5 and 10 mg/kg i.p. once daily for 12 weeks) was “active in limiting the accumulation of adipose tissues; also recorded: significant decrease”. In data set [1] (setting [3]), the “weight of brown fat” value is listed as “significant (p < 0.05) decrease”, the “weight of inguinal fat” value is listed as “significant (p < 0.05) decrease”, the “weight of mesenteric fat” value is given as “significant (p < 0.05) decrease” and the “weight of retroperitoneal fat” value is “significant (p < 0.05) decrease”. For the same compound, the “weight ratio of adipose tissue to the whole body” value in data set [1] (g/100 g of body weight) is reported as “constant”. In data set [2] (human), this compound returned a half-life of no less than 5 h. In addition, in data set [2] (mouse), the “initial dose remaining after incubation in mice plasma” value was “about 50%” and the half-life amounted to 2.92 ± 0.283 h. The compound further gave a half-life in data set [2] (rat) of no less than 5 h.

The values above are taken from article PMC7957705 (Molecules, 2021).
